Patent publication US10968214B2, “KRas G12C inhibitors” (Eli Lilly and Company, priority 2018, dated 2021)
Read-outs that look alike come from different tables or passages of the source.

Experiments:
EL2661 (PDX) = assay: Anti-tumor growth activity, EL2661 lung PDX; type: in vivo; details: 28 Day, negative = regression
SW837 = assay: Combination 4 day growth assay (Cell TiterGlo), SW837; type: cell-based; details: Homo sapiens, SW837, 96 h, single treatment, read-out: Absolute IC50
Description: Cell lines for this study are obtained from ATCC and grown under ATCC recommended conditions, except for LXFA-983L, which is obtained from Oncotest/Charles Rivers Laboratories, Wilmington, Mass. and D122-96, which is obtained from L. Eisenbach (Weizman Institute of Science, Rehovot, Israel)—both grown under recommended conditions. […] The proliferation assay is performed as a 4 day growth assay using Cell TiterGlo® as the readout. Briefly, cells are plated in 96-well cell culture plates and allowed to adhere overnight at 37° C. The following day, cells are treated with compounds, either single treatments or combination treatments. First, the testing compounds are serially diluted in DMSO, followed by dilution into media as a 5× concentration with 1% DMSO, and finally added to cells in media to dilute to 1×. The cells are incubated at 37° C. for 4 more days. At the end of the incubation period, Cell TiterGlo® reagent is mixed and added to the wells. After 10 minutes, the luminescence is read by a Perkin Elmer Envision instrument. Absolute IC50 values generated by a 4-parameter logistics model for the single and combination treatments are generated, followed by combination indexes for each combination treatment and cell line. The combination IC50 values are adjusted based on the total concentration of each compound when added together. […] The combination index (CI) measures the degree to which the potency of a combination therapy differs from the expected-if-additive potency and is based on the Loewe definition of additivity.
[formula] Where • CAy and CBy are the concentrations of therapies A and B that produce an effect, y, when given in combination • ICAy and ICBy are the concentrations of A and B that produce an effect, y, when given individually The biological interpretation of the combination index is as follows: synergistic if the combination index <0.5, additive if the combination index is between 0.5 and 2, and antagonistic if the combination index is >2.

[1] = target: T1, active KRas in H358 xenograft tumors (Homo sapiens, UniProt P01116, G12C); assay: In vivo target inhibition/PD, H358 xenograft, active KRas; design: species or system mouse; details: for inhibition at 10 mg/kg: 10 mg/kg single dose; for inhibition at 30 mg/kg: 30 mg/kg single dose
T1 construct: from tissue; host or cells: H358 xenograft tumours from nude mice
T1 sequence (P01116 1-188 isoform P01116-2 G12C): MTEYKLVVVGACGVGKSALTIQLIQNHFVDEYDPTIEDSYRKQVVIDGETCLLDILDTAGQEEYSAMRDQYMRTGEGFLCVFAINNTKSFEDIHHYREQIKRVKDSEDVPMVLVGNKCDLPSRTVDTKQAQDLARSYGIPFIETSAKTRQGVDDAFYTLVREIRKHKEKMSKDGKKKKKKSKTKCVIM
Description: To evaluate in vivo target inhibition and anti-tumor efficacy of a compound, Human lung cancer cells, H358 or H2122 are implanted into nude mice xenograft tumor models. Either H358 or H2122 cells (10×10^6 in a 1:1 Matrigel® mix, 0.2 mL total volume) are implanted by subcutaneous injection in hind leg of nude female mice (Harlan Laboratories). A total of 5 mice each group are used for efficacy study, and a total of 3-4 mice each group are used for target engagement and PD study. Treatment is initiated with oral administration (gavage) of a test compound or vehicle (20% Captisol®, 25 mM phosphate, pH 2.0 in 0.2 mL volume when the tumor size reaches approximately […]. Tumor growth and body weight are monitored over time to evaluate efficacy and signs of toxicity. Bidimensional measurements of tumors are performed twice a week and tumor volumes are calculated based on mid-axis length and mid-axis width. Tumor volume data are transformed to a log scale to equalize variance across time and treatment groups. The log volume data are analyzed with a two-way repeated measures analysis of variance by time and treatment using the mixed procedures in SAS software (version 8.2). The correlation model for the repeated measures is spatial power. Treated groups are compared to the control group at each time point. The mixed procedure is also used separately for each treatment group to calculate adjusted means and standard errors at each time point. Both analyses account for the autocorrelation within each animal. The adjusted means and standard errors are plotted for each treatment group versus time.
For in vivo target inhibition and PD analysis, tumors are ground by mortar and pestle on dry ice and tumor fragments are added to 800 μL of lysis buffer containing 1% Triton X100, 25 mM Tris pH 7.5, 150 mM NaCl, 1 mM EDTA, and 1 mM EGTA with Halt protease and phosphatase inhibitor cocktail (Thermo Scientific, cat. no. 1861281) in lysing matrix D tubes (MP Biomedical®, cat. no. 6913-500) with one additional large bead (MP Biomedical® ¼″ ceramic sphere bead cat. no. 6540-412) per tube. Tumor fragments are homogenized in a Thermo Bio101® fast prep (FP120) at setting 4 for […] while cold for a total of 2 times. Lysates are spun at 14,000 rpm for 10 min at 4° C. to clarify. Protein estimation is done on the lysate supernatant using a BioRad Dc® protein assay and lysates are diluted in complete lysis/binding buffer from the Ras GTPase Chemi ELISA Kit® (Active Motif, cat. no. 52097). The active KRas ELISA was performed as follows: Glutathione-coated ELISA wells were incubated with diluted RAF1-GST in complete lysis/binding buffer for 1 hr at 4° C. with gentle agitation. Wells are washed 3 times with wash buffer and 100 μg of lysates are added to each well and incubated at RT for 1 hr with mild agitation. The wells are washed an additional 3 times, then primary antibody, diluted in antibody binding buffer, is added to each well. The plates are incubated for 1 hr. The wells are washed 3 more times before adding HRP-conjugated secondary antibody, diluted in antibody binding buffer, to each well. The plates are incubated at RT for 1 hr. ELISA wells are washed 4 times, chemiluminescent reagents is added and then luminescence is read. For pERK Meso Scale Discovery ELISA, 25 μg of protein containing 0.1% SDS is used; for pMEK Meso Scale Discovery ELISA, 50 μg of protein without SDS is used. Meso Scale Discovery Whole Cell Lysate Kits for pERK and pMEK are provided by Meso Scale Discovery.
The tumor samples are collected 4 hr post a single dose. The tumor lysates are prepared and the inhibition of pERK, pMEK, and active KRas is measured as described above.
After a single dose, the tumor samples are harvested at 2, 4, 8, 12 and 24 hr post doing. The tumor lysates are prepared and the inhibition of pERK, pMEK, and active KRas is measured as described above.

KYSE-410 xenograft = assay: Anti-tumor growth activity, KYSE-410 esophageal xenograft; type: in vivo; details: 28 Day, negative = regression
[2] = NCI-H358, mouse, 4 hr post dose, read-out: % Inhibition Active KRas
[3] = NCI-H358, mouse, time course, 2 hr, read-out: % Inhibition Active KRas
[4] = NCI-H358, mouse, time course, 4 hr, read-out: % Inhibition Active KRas
[5] = NCI-H358, mouse, time course, 8 hr, read-out: % Inhibition Active KRas
[6] = NCI-H358, mouse, time course, 12 hr, read-out: % Inhibition Active KRas
[7] = NCI-H358, mouse, time course, 24 hr, read-out: % Inhibition Active KRas

`C=CC(=O)N1CCN(c2ncnc3c(F)c(-c4ccc(F)c5sc(N)nc45)c(Cl)cc23)CC1` [Example 1, 1-{4-[7-(2-Amino-7-fluoro-1,3-benzothiazol-4-yl)-6-chloro-8-fluoroquinazolin-4-yl]piperazin-1-yl}prop-2-en-1-one] was tested, and the “Tumor Growth Inhibition (%) or Regression (−%)” value (“Tumor Growth Inhibition … (−%)” below) (EL2661 (PDX); 10 mg/kg QD) was 46.5%, the “Tumor Growth Inhibition … (−%)” value (EL2661 (PDX); 20 mg/kg QD) was 58.6% and the “Tumor Growth Inhibition … (−%)” value (EL2661 (PDX); 30 mg/kg QD) was 97.6%. The “Tumor Growth Inhibition … (−%)” value (EL2661 (PDX); 50 mg/kg QD) was −8.6%, the IC50 (SW837) was 101 nM and the inhibition at 1 mg/kg ([1]; NCI-H358, mouse, 1 mg/kg single dose, 4 hr post dose) was -1.9%. It also gave an inhibition at 3 mg/kg ([1]; NCI-H358, mouse, 3 mg/kg single dose, 4 hr post dose) of -2.9%, an inhibition at 10 mg/kg [1, 2] of 40.9% and an inhibition at 10 mg/kg ([1]; NCI-H358, mouse, from 2-24 hr, read-out: active Kras inhibition) of 21 to 61%. For the same compound, the inhibition at 30 mg/kg [1, 2] was 83.2%, the inhibition at 30 mg/kg ([1]; NCI-H358, mouse, from 2-24 hr, read-out: active KRas inhibition) was 29 to 70% and the inhibition at 100 mg/kg ([1]; NCI-H358, mouse, 100 mg/kg single dose, 4 hr post dose) was 87.4%. For the same compound, the inhibition at 10 mg/kg [1, 3] was 26.1%, the inhibition at 10 mg/kg [1, 4] was 32.9% and the inhibition at 10 mg/kg [1, 5] was 30%. For the same compound, the inhibition at 10 mg/kg [1, 6] was 61.1%, the inhibition at 10 mg/kg [1, 7] was 21.5% and the inhibition at 30 mg/kg [1, 3] was 70.4%. The inhibition at 30 mg/kg [1, 4] was 65%, the inhibition at 30 mg/kg [1, 5] was 66.5% and the inhibition at 30 mg/kg [1, 6] was 28.7%. The inhibition at 30 mg/kg [1, 7] was 37.7%, the EC50 ([1]; plasma exposure by mass spectrum, read-out: plasma concentration to achieve 50% target inhibition (TEC50), active KRas) was 574 nM and the “dose to achieve 50% target inhibition (TED50), active KRas” value ([1]; single dose, 4 hr) was 11.2 mg/kg. The “Tumor Growth Inhibition … (−%)” value (KYSE-410 xenograft; 15 mg/kg BID) was 21.2%, the “Tumor Growth Inhibition … (−%)” value (KYSE-410 xenograft; 30 mg/kg BID) was −9% and the “Tumor Growth Inhibition … (−%)” value (KYSE-410 xenograft; 30 mg/kg QD) was 74.5%.
